Reference: patent US9688624B2, “DP2 antagonist and uses thereof” (Brickell Biotech, Inc., priority 2010, dated 2017)

What was measured:
CYP2C19 = CYP2C19 (Homo sapiens (Human), UniProt P33261); assay: Extracellular cytochrome P450 inhibition (microsomes); details: 2C19, mephenytoin 4′-hydroxylation
[1] = Metabolites of Compound 1 (active metabolites)
Protocol: Compound 1 metabolites formed during incubation of Compound 1 with rat, dog, and human liver microsomes, rat and human hepatocytes, as well as those generated in vivo and isolated from rat bile and rat and dog plasma have been investigated. Authentic standards of the majority of the metabolites have been chemically synthesized. The identity of the in vitro and in vivo metabolites were confirmed by comparison with the authentic standard and/or by the fragmentation pattern observed following LC-MS/MS analysis.

Sequence of CYP2C19 (P33261 whole entry): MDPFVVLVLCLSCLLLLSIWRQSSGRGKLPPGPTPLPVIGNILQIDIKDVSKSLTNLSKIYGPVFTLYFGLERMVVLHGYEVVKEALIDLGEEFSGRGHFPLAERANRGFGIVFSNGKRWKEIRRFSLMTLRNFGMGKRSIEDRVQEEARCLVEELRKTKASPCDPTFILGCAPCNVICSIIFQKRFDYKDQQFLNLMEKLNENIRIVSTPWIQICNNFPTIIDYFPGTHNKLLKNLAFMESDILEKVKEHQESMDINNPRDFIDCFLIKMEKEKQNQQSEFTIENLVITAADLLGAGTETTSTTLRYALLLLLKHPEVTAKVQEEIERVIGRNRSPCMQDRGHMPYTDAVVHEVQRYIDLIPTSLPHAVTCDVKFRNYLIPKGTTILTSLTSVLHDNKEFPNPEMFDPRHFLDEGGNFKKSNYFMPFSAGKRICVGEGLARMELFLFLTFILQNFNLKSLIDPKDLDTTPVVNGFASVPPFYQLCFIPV

Row | SMILES | IC50 (CYP2C19) [µM] | activity of metabolite [1]
1 | CCC1(c2ccccc2)C(=O)NC(=O)N(Cc2ccccc2)C1=O (single isomer, unassigned; (-)) [(-)-N-3-benzyl-phenobarbital, reference compound] | 8.7 | –
2 | COc1ccc(CC(=O)O)cc1Oc1ccc(NC(=O)C(C)(C)C)cc1C[S+]([O-])C(C)(C)C (centres unmarked) [Compound M1, 2-(3-(2-(tert-butylsulfinylmethyl)-4-pivalamidophenoxy)-4-methoxyphenyl)acetic acid] | – | active
3 | COc1ccc(CC(=O)O)cc1Oc1ccc(NC(=O)C(C)(C)C)cc1CS(=O)(=O)C(C)(C)C [Compound M2, 2-(3-(2-(tert-butylsulfonylmethyl)-4-pivalamidophenoxy)-4-methoxyphenyl)acetic acid] | – | active
4 | CC(C)(C)SCc1cc(NC(=O)C(C)(C)C)ccc1Oc1cc(CC(=O)O)ccc1O [Compound M3, 2-(3-(2-(tert-butylthiomethyl)-4-pivalamidophenoxy)-4-hydroxyphenyl)acetic acid] | – | active
5 | CC(C)(C)C(=O)Nc1ccc(Oc2cc(CC(=O)O)ccc2O)c(C[S+]([O-])C(C)(C)C)c1 (centres unmarked) [Compound M5, 2-(3-(2-(tert-butylsulfinylmethyl)-4-pivalamidophenoxy)-4-hydroxyphenyl)acetic acid] | – | active
